This passage reports oral-cecal transit time results from patent US6559158B1, “Use of methylnaltrexone and related compounds to treat chronic opioid use side affects” (UR Labs, Inc., priority 1997, dated 2003).

In this assay the test system is morphine-induced changes in oral-cecal transit time. In words: Example 4: morphine-induced delay of oral-cecal transit time in subjects given opioids non-chronically. Type of assay: in vivo, human. Particulars: placebo plus 0.05 mg/kg morphine, 12 subjects, mean±SD; baseline 104.6±31.1; p<0.01.

Procedure: Sessions were separated by at least 1 week. Each session lasted approximately 7 hours, and the subjects received one of three injections: (1) placebo plus placebo, (2) placebo plus 0.05 mg/kg morphine, or (3) 0.45 mg/kg methylnaltrexone plus 0.05 mg/kg morphine. Injection I was given at the first session, and the subjects were blinded to the medication. Injections 2 and 3 were given in a random order, and the subjects and observers were blinded to the medication. Injection assignments were prepared by random selection on a computer and were sealed in envelopes.
After completion of the above three injections, we asked six of the subjects, beginning with those who had completed the study last, to return for a fourth injection (0.45 mg/kg methylnaltrexone plus 0.1 mg/kg morphine). This was done to evaluate the effects of methylnaltrexone with a higher does of morphine.
Results of the hydrogen breath test after different injections were analyzed with the use of the Wilcoxon matched-pairs signed-rank test, with p<0.05 considered to be statistically significant.

Turning to `CN1CC[C@]23c4c5ccc(O)c4O[C@H]2[C@@H](O)C=C[C@H]3[C@H]1C5.O=S(=O)(O)O` [Morphine, morphine sulfate], the oral-cecal transit time amounted to 163.3 ± 39.8 min.
